{
  "source": "patent US7632801B2",
  "about": "“Identification and use of antiviral compounds that inhibit interaction of host cell proteins and viral proteins required for viral replication” (Mount Sinai School of Medicine of New York University, priority 1995, dated 2009)",
  "test_system": "Influenza A/WSN/Virus",
  "assay_type": "cell-based",
  "data": [
    {"substance": "Ala Ser Gln Gly Thr Lys Arg Ser Tyr Glu Gln Met Glu Thr Asp Gly Glu Arg Gln (ASQGTKRSYEQMETDGERQ; listed as Homo sapiens) [NP-NLS oligopeptide, 19-amino acid NP-NLS oligopeptide corresponding to amino acids 2-20 of NP]", "values": [
      {"measurement": "inhibition of viral growth (hemagglutination titer)", "value": "thousand-fold"}
    ]}
  ]
}
